Common to all, as to assay: Heart Infusion Agar Dilution Method, antimicrobial activity
Common to all, as to type: cell-based
A general note: In agar dilution, organisms are placed on agar that contains the substance at set levels.

The test system of test [1] is Pseudomonas aeruginosa #1.
Description: (§1) Heart Infusion Agar Dilution Method (pH 7.2) is used.
as §1

The next test deals with Proteus rettgeri KY 4289. Particulars: Providencia rettgeri, KY4289; Proteus retteri KY 4289; pH 7.2; Example 6. The text has this: (§2) Antimicrobial activities of the compound obtained in Example 1 are as follows. Heart Infusion Agar Dilution Method (pH 7.2) is used.
(§3) Antimicrobial activities of the compound obtained in Example 4 and 5 are as follows. Heart Infusion Agar Dilution Method (pH 7.2) is used. Cefazolin is used as a control.

In a further test the test system is Proteus vulgaris 6897. The settings on record: pH 7.2, Example 6.
Description: as §2, §3

For test [2], the system named is Staphylococcus aureus 209-P. Particulars: pH 7.2, Example 6.
Description: as §2, §3

In another test the test system is Pseudomonas putida 264. Particulars: pH 7.2, Example 6.
Description: as §2, §3

The test system of test [3] is Staphylococcus aureus Smith. The settings on record: pH 7.2, Example 6.
Description: as §2, §3

For the next test, the system named is Proteus mirabilis 1287. Particulars: pH 7.2, Example 6.
Description: as §1, §1

For the next test, the system named is Serratia marcescens T-26. Particulars: T26, pH 7.2, Example 6.
Description: as §1, §1

The subject of a further test is Escherichia coli NIHJC-2. Particulars: NIHJC2, pH 7.2, Example 6.
Description: as §1, §1

The next test has as its system Serratia marcescens T-55. The settings on record: T55, pH 7.2, Example 6.
Description: as §1, §1

The subject of test [4] is Klebsiella pneumoniae Y-60. The settings on record: Y60, pH 7.2, Example 6.
Description: as §1, §1

For another test, the system named is Escherichia coli Juhl. The settings on record: pH 7.2, Example 6.
Description: as §1, §1

Test [5] relates to Klebsiella pneumoniae 8045. Particulars: pH 7.2, Example 6.
Description: as §1, §1

The subject of test [6] is Escherichia coli GN2411-5. Particulars: pH 7.2, Example 6.
Description: as §2, §3

The test system of test [7] is Pseudomonas aeruginosa 145. Particulars: pH 7.2, Example 6.
Description: as §2, §3

Test [8] concerns Staphylococcus epidermidis. Particulars: pH 7.2, Example 6.
Description: as §2, §3

A further test relates to Proteus morganii KY 4298. Particulars: Morganella morganii, KY4298, pH 7.2, Example 6.
Description: as §2, §3

In brackets after ≈: the same amount, converted by molar mass. Bounds are passed on as bounds.

A word on the MIC: it is the lowest concentration that inhibits growth of the organism. Read a low MIC as a more susceptible organism.

In test [1] (pH 7.2), `CO/N=C(\C(=O)N[C@@H]1C(=O)N2C(C(=O)O)=C[C@@H](O)C[C@H]12)c1csc(N)n1` [A, (4S, 6R, 7S)-7-[2-(2-amino-4-thiazolyl)-2-syn-methoxyiminoacetamido]-4-hydroxy-1-azabicyclo[4,2,0] oct-2-en-8-on-2-carboxylic acid] gave an MIC of 0.73 µg/mL (≈ 1.91 µM).
Take `Cc1nnc(SCC2=C(C(=O)O)N3C(=O)[C@@H](NC(=O)Cn4cnnn4)[C@H]3SC2)s1` [Cefazolin, reference compound]: the MIC came to 12.5 µg/mL (≈ 27.5 µM) against Proteus rettgeri KY 4289; 50 µg/mL (≈ 110 µM) in the test with Proteus vulgaris 6897; 0.05 µg/mL (≈ 0.11 µM) in test [2]; 50 µg/mL (≈ 110 µM) in the test on Pseudomonas putida 264; 0.2 µg/mL (≈ 0.44 µM) in [3].
On to `CC(C)(O/N=C(\C(=O)N[C@@H]1C(=O)N2C(C(=O)O)=C[C@@H](O)C[C@H]12)c1csc(N)n1)C(=O)O` [Example 4, (4S, 6R, 7S)-7-[2-(2-amino-4-thiazolyl)-2-syn-(2-carboxyprop-2-oxyimino)acetamido]-4-hydroxy-1-azabicyclo[4,2,0]oct-2-en-8-on-2-carboxylic acid], for which the MIC amounted to 0.02 µg/mL (≈ 0.0441 µM) in the test on Proteus mirabilis 1287; 0.78 µg/mL (≈ 1.72 µM) in the test with Serratia marcescens T-26; 0.78 µg/mL (≈ 1.72 µM) in the test with Escherichia coli NIHJC-2; 0.4 µg/mL (≈ 0.882 µM) in the test with Serratia marcescens T-55; 0.2 µg/mL (≈ 0.441 µM) in test [4]; 0.78 µg/mL (≈ 1.72 µM) in test [1] (pH 7.2, Example 6). Moreover, the MIC in the test with Escherichia coli Juhl is 0.4 µg/mL (≈ 0.882 µM); in test [5], 0.2 µg/mL (≈ 0.441 µM); in test [6], 0.2 µg/mL (≈ 0.441 µM); in test [7], 3.12 µg/mL (≈ 6.88 µM); in the test with Proteus rettgeri KY 4289, no more than 0.01 µg/mL; in [8], greater than 100 µg/mL. Moreover, the MIC was no more than 0.01 µg/mL in the test on Proteus vulgaris 6897; 0.1 µg/mL (≈ 0.221 µM) against Proteus morganii KY 4298; greater than 100 µg/mL in [2]; no more than 0.01 µg/mL against Pseudomonas putida 264; greater than 100 µg/mL in [3].
On to `CO/N=C(\C(=O)N[C@@H]1C(=O)N2C(C(=O)O)=C[C@@H](O)C[C@H]12)c1nc(N)sc1Br` [Example 5, (4S, 6R, 7S)-7-[2-(2-amino-5-bromo-4-thiazolyl)-2-syn-methoxyiminoacetamido]-4-hydroxy-1-azabicyclo[4,2,0]oct-2-en-8-on-2-carboxylic acid], for which the MIC in the test on Proteus mirabilis 1287 turned out to be 1.56 µg/mL (≈ 3.39 µM); with Escherichia coli NIHJC-2 it was 3.12 µg/mL (≈ 6.78 µM); in test [4] it was 1.56 µg/mL (≈ 3.39 µM); with Escherichia coli Juhl, 3.12 µg/mL (≈ 6.78 µM); in test [5] it was 0.78 µg/mL (≈ 1.69 µM); in test [6] it was 0.78 µg/mL (≈ 1.69 µM). For the same compound, the MIC in test [7] is 25 µg/mL (≈ 54.3 µM); in the test on Proteus rettgeri KY 4289, no more than 0.01 µg/mL; in test [8], 100 µg/mL (≈ 217 µM); against Proteus vulgaris 6897 it was 0.2 µg/mL (≈ 0.435 µM); with Proteus morganii KY 4298, 1.56 µg/mL (≈ 3.39 µM); in test [2] it was 50 µg/mL (≈ 109 µM). In addition, the MIC was 0.2 µg/mL (≈ 0.435 µM) in the test on Pseudomonas putida 264 and 50 µg/mL (≈ 109 µM) in test [3].
